From US20250154180A1, “CRK-LIKE (CRKL) ADAPTOR PROTEIN INHIBITORS AND METHODS OF MAKING AND USING THE SAME” (Rutgers, The State University of New Jersey, priority 2022, published 2025)

Assays:
[1] = test system: BXPC3 tumor; experiment: PDAC BXPC3 xenograft model; format: in vivo, NSG mice
Description: For HCC or PDAC xenograft models, NSG mice 8-week-old) were injected subcutaneously with 1×10^6 HepG2 or BXPC3 tumor cells mixed with Matrigel.
(§1) To further test whether the tumor growth inhibition effect of NC5 applied to other solid tumors, the HCC-Sk-Hep1cell line and PDAC-BXPC3 cell line xenograft models were used. Subcutaneous injection of 1.5×10^6 SK-Hep1 or BXPC3 cells in NSG mice, Six-ten days after tumor cell injection, the palpable tumor in NSG mice was confirmed.

[2] = target: T1, CrkL (Homo sapiens, UniProt P46109); format: biochemical
Description: Single-molecule Fluorescence Resonance Energy Transfer (smFRET)—Single-molecule Fluorescence Resonance Energy Transfer (smFRET) was applied to monitor conformations of single molecules. CrkL has two cysteines (a relatively rare amino acid), one in its SH2 and another in SH3C domains. CrkL was mixed with a mixture of equal amounts of Alexa555-maleimide and Alexa647-maleimide (Invitrogen, USA) (10× over protein concentration) to randomly label the two cysteines. The labeled protein was purified from an unreacted dye by gel filtration. Molecules with exactly one donor and acceptor are identified in single-molecule data analysis and used for further analysis. […] The FRET change between non-phosphorylated CrkL and phosphorylated CrkL was measured. The dye-labeled protein was used in in vitro kinase assays with different drugs treatments as described above. smFRET measurements were performed with a prism-type total internal refection microscope (TIRF) where FRET efficiency is calculated from measured donor and acceptor intensities (Id and Ia, respectively) by FRET=Ia/(Id+Ia), as described previously. To surface immobilize 6×His tagged CrkL, the protein was added to the biotinylated 6×His antibody (Thermo Scientific Cat #: MA1-80087) bound to streptavidin, which was adsorbed to a quartz slide. A lipid bilayer was used to passivate the quartz surface. Phosphorylation was performed on the immobilized Crk in situ.
In intramolecular smFRET, non-radiative energy transfer occurs when two fluorophores attached to different parts of one molecule move close together. […] A cysteine-maleimide-based chemistry was used to label both CrkL and mutant (non-phosphorylatable) CrkL-Y207F. CrkL has a cysteine (a relatively rare amino acid) in its SH2 (labeled with AlexaFluor555) and SH3C (labeled with AlexaFluor647). […] Western Blot (WB) and immunoprecipitation (IP) was used to verify that labeled proteins retain the same gross functional properties as wild-type CrkL (e.g., are phosphorylatable and capable of binding SH2 and SH3 ligands). Briefly, site-specific labeled CrkL was mixed with Ab1 in the presence of Mg^2+ and ATP. A single AlphaScreen-identified candidate inhibitor was then added per assay.

[3] = test system: PBNK cells killing activity towards MDA-MB-231; experiment: Cr51 release assay, PBNK killing of MDA-MB-231; format: cell-based; details: 1 uM overnight
Description: PBNK cells were incubated with 1 uM NC5 or Compound III overnight, then cells were harvested for Cr51 release assay to check cell cytotoxicity. […] The star symbol indicates the significance of vehicle control vs. NC5 of the indicated E:T ratios. *p<0.05, **p<0.01, n=3.

[4] = test system: CD147-CAR-NK killing in BXPC3 cells; experiment: Cr51 release assay, CD147-CAR-NK killing of BXPC3; format: cell-based; details: 1 uM overnight
Description: In this example, activity of NC5 was evaluated for PBNK and CD147-CAR-NK killing in BXPC3 cells. PBNK or CD147-CAR-NK cells were incubated with 1 uM NC5 overnight, then cells were harvested for Cr51 release assay to check cell cytotoxicity. […] The star symbol indicates the significance of vehicle vs. NC5 of the indicated E:T ratios. *p<0.05, **p<0.01, n=3.

[5] = test system: Sk-Hep1 tumor; experiment: HCC Sk-Hep1 xenograft model; format: in vivo, NSG mice
Description: as §1
To test the effects of the disclosed compounds on the xenograft mouse models, the HCC-Sk-Hep1 cell line xenograft model in NSG mice and 4T1-Luc orthotopic syngeneic breast tumor model in Balb/c mice was used. After confirming the palpable tumor in NSG or Balb/c mice. […] Compound III is referred to as “NC5-140-1” and Compound I is referred to as “NC5-140-2” in FIGS. 11A-11C.

[6] = target: T1, CrkL; experiment: Thermal shift assay, CrkL; format: binding; details: increase of 2° C. or greater in Tm defined as positive
Description: Thermal Shift Assay—Thermal shift assay is a thermal-denaturation assay, which can measure the thermal stability of a tested protein. When a protein of interest is bound to a ligand (or drug), its melting temperature increases. For each single well assay, CrkL (1 μg per well), SYPRO® Orange (1:500 dilution from original stock), candidate drugs (same final concentration as in AlphaScreen) and reaction buffer (1×TBS) were mixed. The total volume for a single well was 10 ul. The assay was quantified by a melt curve on a real-time PCR machine, using melting temperatures from 20° C. to 95° C.
To identify specific pCrk inhibitors, thermal shift and in vitro kinase assays were used to distinguish between these possibilities. In a thermal shift assay, each tested protein (purified Ab1 or CrkL) has a melting temperature (Tm) detected by a protein stain dye such as Sypro Orange. After binding to a drug, the Tm of the tested protein will increase as a higher temperature is required to unfold the protein (FIG. 2A). A total of 71 candidate compounds from different libraries were evaluated, which were previously identified by the initial AlphaScreen assay, on both CrkL and Ab1. An increase of 2° C. or greater in Tm (stable increase in three independent experiments) was defined as a positive result in these thermal shift assays.

[7] = test system: hematopoietic cancer cell lines (K562, NK92-MI, Daudi, KHYG-1); experiment: MTT assay, hematopoietic cancer cell lines; format: cell-based; details: five M Pomiferin for three days; compared with MDA-MD-231-LUC
Description: MTT assay—The MTT assay was used to detect cell proliferation. Briefly, cells were plated in a 96-well plate at a density of 50,000 cells/well in 200 μl of culture medium with candidate drugs to be tested (DMSO as a negative control). The treated cells were incubated for four hours a 37° C. with a 5% CO2 incubator to allow dark crystals to form at the bottom of the wells. […] After aspirating the culture medium from each well, 100 μl of crystal dissolving solution was added to each well and incubated for 10 minutes at RT. The signal was quantified by measuring the absorbance in each sample at 570 nm using a microplate reader.
To further test the inhibitory specificity of Pomiferin for specific breast cancer cell lines, The survival percentage was compared between different hematopoietic cancer cell lines and healthy PBMCs.

T1 sequence (P46109 whole entry, the tested form may be a part): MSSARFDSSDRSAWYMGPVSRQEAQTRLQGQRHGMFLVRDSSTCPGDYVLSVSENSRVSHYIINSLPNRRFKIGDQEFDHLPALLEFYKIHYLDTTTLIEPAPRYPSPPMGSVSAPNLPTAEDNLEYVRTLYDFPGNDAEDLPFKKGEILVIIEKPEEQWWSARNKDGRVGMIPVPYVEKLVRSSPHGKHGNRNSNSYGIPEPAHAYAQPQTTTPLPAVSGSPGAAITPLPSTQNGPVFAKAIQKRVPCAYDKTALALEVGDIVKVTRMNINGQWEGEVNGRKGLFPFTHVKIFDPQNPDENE

SMILES: CC(C)=CCc1c2c(c3occ(-c4ccc(O)c(O)c4)c(=O)c3c1O)C=CC(C)(C)O2 [Pomiferin, 3′,4′,5-Trihydroxy-6″,6″-dimethyl-6-(3-methylbut-2-en-1-yl)-6″H-pyrano[2″,3″:7,8]isoflavone]
- median survival ([1]; 5.0 μg/g oral, vehicle 37 days): 43.5 days
- tumor growth ([1]; Pomiferin administered orally): suppressed
- median survival, fold longer than vehicle control ([1]; mouse, in vivo): 1.2 fold
- inhibition of the higher FRET caused by Ab1 (pCrkL) ([2]; CrkL + Ab1, Mg2+ and ATP): 55%
- FRET signal ([2]; CrkL about 0.4, CrkL+Ab1 about 0.6): 0.5
- PBNK cells killing activity (Cr51 release) [3]: increased PBNK cells killing activity
- CD147-CAR-NK killing (Cr51 release) [4]: increased
- tumor growth ([5]; Pomiferin administered orally, two-group study): suppressed
- tumor growth ([5]; four-group study, 5.0 μg/g oral gavage): inhibit tumor growth
- median survival ([5]; four-group study, 5.0 μg/g oral gavage, vehicle 26 days): 34 days
- tumor sizes before day 25 of inoculation ([5]; four-group study, administered orally): no significant difference in tumor sizes
- median survival, fold longer than vehicle control ([5]; two-group study): 1.54 fold
- median survival ([5]; two-group study, 5.0 μg/g oral, vehicle 24 days): 37 days
- Tm of CrkL (thermal shift) [6]: the Tm of CrkL increased
- sensitivity to Pomiferin (survival percentage, MTT) [7]: more resistant to Pomiferin inhibition
